ChEMBL document CHEMBL5579798, “Discovery of novel oridonin sulfamide derivatives as potent NLRP3 inhibitors by a visible-light photocatalysis-enabled peripheral editing” (Bioorg Med Chem Lett, 2024)

Assay: Cytotoxicity against human THP-1 cells by CCK-8 method
Format: toxicity, cell-based

| Structure (SMILES) | CC50 [µM] |
| --- | --- |
| CC1(C)CC[C@H](O)[C@]23CO[C@](O)([C@@H](O)[C@H]12)[C@]12C(=O)[C@@H](CCNS(=O)(=O)c4ccsc4)[C@H](CC[C@@H]31)[C@H]2O | > 100 |
| CC1(C)CC[C@H](O)[C@]23CO[C@](O)([C@@H](O)[C@H]12)[C@]12C(=O)[C@@H](CCNS(=O)(=O)/C=C/c4ccccc4)[C@H](CC[C@@H]31)[C@H]2O | > 100 |
| CC1(C)CC[C@H](O)[C@]23CO[C@](O)([C@@H](O)[C@H]12)[C@]12C(=O)[C@@H](CCNS(=O)(=O)c4ccc(C#N)cc4)[C@H](CC[C@@H]31)[C@H]2O | > 100 |
| CC1(C)CC[C@H](O)[C@]23CO[C@](O)([C@@H](O)[C@H]12)[C@]12C(=O)[C@@H](CCNS(=O)(=O)c4cccnc4)[C@H](CC[C@@H]31)[C@H]2O | > 100 |
| CC1(C)CC[C@H](O)[C@]23CO[C@](O)([C@@H](O)[C@H]12)[C@]12C(=O)[C@@H](CCNS(=O)(=O)c4ccc(F)cc4)[C@H](CC[C@@H]31)[C@H]2O | > 100 |
| CC(C)(C)OC(=O)NCC[C@@H]1C(=O)[C@]23[C@H](O)[C@H]1CC[C@H]2[C@@]12CO[C@]3(O)[C@@H](O)[C@@H]1C(C)(C)CC[C@@H]2O | > 100 |
| CC1(C)CC[C@H](O)[C@]23CO[C@](O)([C@@H](O)[C@H]12)[C@]12C(=O)[C@@H](CCNS(=O)(=O)c4ccc(C(F)(F)F)cc4)[C@H](CC[C@@H]31)[C@H]2O | > 100 |
| C=C1C(=O)[C@]23[C@H](O)[C@H]1CC[C@H]2[C@@]12CO[C@]3(O)[C@@H](O)[C@@H]1C(C)(C)CC[C@@H]2O [ORIDONIN] | 19.8 |
| CC1(C)CC[C@H](O)[C@]23CO[C@](O)([C@@H](O)[C@H]12)[C@]12C(=O)[C@@H](CCNS(=O)(=O)c4ccccc4)[C@H](CC[C@@H]31)[C@H]2O | > 100 |
| Cn1ccc(S(=O)(=O)NCC[C@@H]2C(=O)[C@]34[C@H](O)[C@H]2CC[C@H]3[C@@]23CO[C@]4(O)[C@@H](O)[C@@H]2C(C)(C)CC[C@@H]3O)n1 | > 100 |
| CC1(C)CC[C@H](O)[C@]23CO[C@](O)([C@@H](O)[C@H]12)[C@]12C(=O)[C@@H](CCN)[C@H](CC[C@@H]31)[C@H]2O | > 100 |
| CN(C)c1cccc2c(S(=O)(=O)NCC[C@@H]3C(=O)[C@]45[C@H](O)[C@H]3CC[C@H]4[C@@]34CO[C@]5(O)[C@@H](O)[C@@H]3C(C)(C)CC[C@@H]4O)cccc12 | 96.8 |
| COc1ccc(S(=O)(=O)NCC[C@@H]2C(=O)[C@]34[C@H](O)[C@H]2CC[C@H]3[C@@]23CO[C@]4(O)[C@@H](O)[C@@H]2C(C)(C)CC[C@@H]3O)cc1 | > 100 |
